Results on six molecules are retold here after paper PMC10186355, “Discovery of 5′-Substituted 5-Fluoro-2′-deoxyuridine Monophosphate Analogs: A Novel Class of Thymidylate Synthase Inhibitors” (ACS Pharmacology & Translational Science, 2023).

The target of the first data set is T1, recombinant human thymidylate synthase (hTS) (Homo sapiens, UniProt P04818).
T1 construct: His tag (N); purchased Abcam ab95378
T1 sequence (P04818 whole entry): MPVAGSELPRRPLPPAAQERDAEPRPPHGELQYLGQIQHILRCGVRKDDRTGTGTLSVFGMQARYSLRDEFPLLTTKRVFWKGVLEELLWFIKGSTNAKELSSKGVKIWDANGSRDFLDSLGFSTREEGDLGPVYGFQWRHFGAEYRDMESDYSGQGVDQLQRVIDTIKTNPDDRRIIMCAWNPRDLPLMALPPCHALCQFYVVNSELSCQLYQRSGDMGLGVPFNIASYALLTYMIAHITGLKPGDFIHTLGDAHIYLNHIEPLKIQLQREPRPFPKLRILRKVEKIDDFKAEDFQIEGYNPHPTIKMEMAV
Nature of the data set: cell-free human thymidylate synthase (hTS) inhibition assay. The class given is biochemical. As to conditions: 0.84 μM hTS, 50 μM dUMP, 250 μM mTHF, DHF formation at 340 nm, room temperature, pH 7.5.
Protocol: This assay measures TS-catalyzed conversion of dUMP and mTHF to dTMP and dihydrofolate (DHF), the latter of which uniquely absorbs strongly at 340 nm (Figures S1 and S2). […] Concentration–response curves were constructed by plotting the normalized reaction rates (calculated using data from the first 100 s after reaction initiation) versus log[inhibitor].
The final concentrations of hTS, dUMP, and mTHF in the reaction systems were 0.84 μM, 50 μM, and 250 μM, respectively. The reaction rates were determined by following the change in the optical absorbance at 340 nm, which corresponded to the formation of the coproduct, DHF.
Human Thymidylate Synthase Inhibition Assay
Recombinant human thymidylate synthase (hTS) was purchased from Abcam (ab95378). The protein was
His-tagged (N-terminal) and >95% pure by SDS-PAGE according to the vendor. dUMP (disodium salt)
(F3503), 5,10-methylenetetrahydrofolate (mTHF, calcium salt , folitixorin calcium ) was purchased from
Boc Sciences (B0084-007873), and all were used without further purification. The cell-free functional hTS
assay protocol was modified from literature procedures :
Inhibition assays were performed using a BioTek Synergy Neo2 plate reader equipped with a Xenon flash
lamp and a photodiode array detector. The hTS reaction was conducted at room temperature in a buffer
solution (pH 7.5) containing 50 mM Tris -HCl, 1 mM EDTA, 25 mM MgCl 2, and 5 mM HCHO. The
reaction system (175 μL total volume, 1 cm optical path lengt h) contained 50 μM dUMP (primary
substrate), 250 μM mTHF (co-substrate and enzyme cofactor), 0.84 μM hTS (enzyme), and decreasing
Formation of the co -product, dihydrofolate, was monitored at 340 nm. Reaction rates were
calculated by plotting t he absorbance at 340 nm against the reaction time and performing linear regression
analysis to determ ine the slope. The reaction rates at different inhibitor concentrations were normalized to
the reaction rate determined in the absence of inhibitor (100% enzymatic activity). Concentration-response
curves were constructed by plotting t he resulting mean % enzymatic activity values (from at least three
independent experiments) against log[inhibitor]. IC50 values were then calculated using non -linear
regression (four -parameter logistic equation, see Equation 1 below) in the GraphPad Prism v.9 software.
Equation 1: Y = Ymin + (Ymax – Ymin) / [1 + 10((logIC50 – X) × Hill Slope)]
By IC50 is commonly meant the concentration needed to halve the response being measured. In the case of `CC(C)(OP(=O)(O)O)[C@H]1O[C@@H](n2cc(F)c(=O)[nH]c2=O)C[C@@H]1O` [Compound 3, 5′-gem-(CH3)2 FdUMP], the IC50 was greater than 20000 nM.

Take `C[C@@H](OP(=O)(O)O)[C@H]1O[C@@H](n2cc(F)c(=O)[nH]c2=O)C[C@@H]1O` [Compound 1, 5′(R)-CH3 FdUMP]: the IC50 was found to be 1210 nM. Consider `O=c1[nH]c(=O)n([C@H]2C[C@H](O)[C@@H]([C@@H](OP(=O)(O)O)C(F)(F)F)O2)cc1F` [Compound 5, 5′(R)-CF3 FdUMP], for which the half-maximal inhibitory concentration (IC50) is greater than 20000 nM. The same measure, in the same setting: the figure for `O=c1[nH]c(=O)n([C@H]2C[C@H](O)[C@@H]([C@H](OP(=O)(O)O)C(F)(F)F)O2)cc1F` [Compound 4, 5′(S)-CF3 FdUMP] is 1240 nM; for `C[C@H](OP(=O)(O)O)[C@H]1O[C@@H](n2cc(F)c(=O)[nH]c2=O)C[C@@H]1O` [Compound 2, 5′(S)-CH3 FdUMP] it is greater than 20000 nM.

A further data set concerns dihydropyrimidine dehydrogenase (DPD).
Assay: not given
Also noted: method as in PMID 9830621, PMID 31756363. The following applies: cited from earlier work.
In the case of `O=c1[nH]cc(F)c(=O)[nH]1` [5-FU, 5-Fluorouracil], the “catabolic degradation in the liver by DPD” value was “up to 85%”.
